Measured values published in patent US20150017667A1, “MEANS AND METHODS FOR ASSESSING LIVER DISORDERS” (BASF SE, priority 2012, published 2015).
Where two headings read alike, the source gives them in different places. Marks after values point to notes of the source that are not given here.

Key:
male rats = test: 28-day repeated dose oral toxicity study (OECD 407) with GC-MS/LC-MS plasma metabolite profiling, male rats; assay type: in vivo, rat
From the text: Drinking water was also offered ad libitum.
The samples were centrifuged for generation of plasma.

female rats [1] = conditions: rat, in vivo
Experimental: (§1) A group of each 5 male and female rats was dosed once daily with the indicated compounds (see Table 5, below for compounds, applied doses and administeration details) over 28 days.
(§2) Each dose group in the studies consisted of five rats per sex. Additional groups of each 5 male and female animals served as controls. Before starting the treatment period, animals, which were 62-64 days old when supplied, were acclimatized to the housing and environmental conditions for 7 days. All animals of the animal population were kept under the same constant temperature (20-24±3° C.) and the same constant humidity (30-70%). The animals of the animal population were fed ad libitum. The food to be used was essentially free of chemical or microbial contaminants. Drinking water was also offered ad libitum. Accordingly, the water was free of chemical and microbial contaminants as laid down in the European Drinking Water Directive 98/83/EG. The illumination period was 12 hours light followed by 12 hours darkness (12 hours light, from 6:00 to 18:00, and 12 hours darkness, from 18:00 to 6:00).
(§3) In the morning of day 7, 14, and 28, blood was taken from the retroorbital venous plexus from fasted anaesthetized animals. From each animal, 1 ml of blood was collected with EDTA as anticoagulant. The samples were centrifuged for generation of plasma. All plasma samples were covered with a N2 atmosphere and then stored at −80° C. until analysis.
(§4) For mass spectrometry-based metabolite profiling analyses plasma samples were extracted and a polar and a non-polar (lipid) fraction was obtained. For GC-MS analysis, the non-polar fraction was treated with methanol under acidic conditions to yield the fatty acid methyl esters. Both fractions were further derivatised with O-methyl-hydroxyamine hydrochloride and pyridine to convert Oxogroups to O-methyloximes and subsequently with a silylating agent before analysis. In LC-MS analysis, both fractions were reconstituted in appropriate solvent mixtures. HPLC was performed by gradient elution on reversed phase separation columns.
(§5) Following comprehensive analytical validation steps, the data for each analyte were normalized against data from pool samples. These samples were run in parallel through the whole process to account for process variability. The significance of treatment group values specific for sex, treatment duration and metabolite was determined by comparing means of the treated groups to the means of the respective untreated control groups using WELCH-test and quantified with treatment ratios versus control and p-values.

female rats [2] = test: 28-day repeated dose oral toxicity study (OECD 407) with GC-MS/LC-MS plasma metabolite profiling, female rats
Experimental: as §1, §2, §3, §4, §5

In the case of `CC/C(=C(\c1ccccc1)c1ccc(OCCN(C)C)cc1)c1ccccc1` [Tamoxifen], the “16-Methylheptadecanoic acid change in plasma” value (male rats; m7) was 0.58*, the “17-Methyloctadecanoic acid change in plasma” value (male rats; m7) was 0.61* and the “Campesterol change in plasma” value (male rats; m7) was 0.59*. The “Lysophosphatidylcholine (C18:1) change in plasma” value (male rats; m7) was 0.78*, the “Myristic acid (C14:0) change in plasma” value (male rats; m7) was 0.65* and the “PC No 04 (putative) change in plasma” value (male rats; m7) was 0.44*. The “Palmitoleic acid (C16:cis[9]1) change in plasma” value (male rats; m7) was 0.57*, the “Phosphatidylcholine (C16:0,C20:4) change in plasma” value (male rats; m7) was 0.87* and the “Phosphatidylcholine (C16:1,C18:2) change in plasma” value (male rats; m7) was 0.76*. The “Phosphatidylcholine (C18:1,C18:2) change in plasma” value (male rats; m7) was 0.79*, the “Phosphatidylcholine No 02 change in plasma” value (male rats; m7) was 0.53* and the “Sphingomyelin (d18:1,C16:0) change in plasma” value (male rats; m7) was 0.66*. For the same molecule, the “Tyrosine change in plasma” value (male rats; m7) was 0.77*, the “Unknown lipid (28000473) change in plasma” value (male rats; m7) was 0.31* and the “Unknown lipid (68000034) change in plasma” value (male rats; m7) was 0.74*. For the same molecule, the “Uracil change in plasma” value (male rats; m7) was 0.86*, the “beta-Sitosterol change in plasma” value (male rats; m7) was 0.75* and the “Lysophosphatidylcholine (C20:4) change in plasma” value (male rats; m7, first of two rows with this name (r24)) was 0.90*. The “Lysophosphatidylcholine (C20:4) change in plasma” value (male rats; m7, second of two rows with this name (r25)) was 0.77*, the “16-Methylheptadecanoic acid change in plasma” value (male rats; m14) was 0.60* and the “17-Methyloctadecanoic acid change in plasma” value (male rats; m14) was 0.64*. The “Campesterol change in plasma” value (male rats; m14) was 0.74*, the “Lysophosphatidylcholine (C18:1) change in plasma” value (male rats; m14) was 0.84* and the “Myristic acid (C14:0) change in plasma” value (male rats; m14) was 0.60*. The “PC No 04 (putative) change in plasma” value (male rats; m14) was 0.56*, the “Palmitoleic acid (C16:cis[9]1) change in plasma” value (male rats; m14) was 0.43* and the “Phosphatidylcholine (C16:0,C20:4) change in plasma” value (male rats; m14) was 0.96*. The “Phosphatidylcholine (C16:1,C18:2) change in plasma” value (male rats; m14) was 0.69*, the “Phosphatidylcholine (C18:1,C18:2) change in plasma” value (male rats; m14) was 0.83* and the “Phosphatidylcholine No 02 change in plasma” value (male rats; m14) was 0.60*. For the same molecule, the “Sphingomyelin (d18:1,C16:0) change in plasma” value (male rats; m14) was 0.73*, the “Tyrosine change in plasma” value (male rats; m14) was 0.85* and the “Unknown lipid (28000473) change in plasma” value (male rats; m14) was 0.46*. The “Unknown lipid (68000034) change in plasma” value (male rats; m14) was 0.59*, the “Uracil change in plasma” value (male rats; m14) was 0.75* and the “beta-Sitosterol change in plasma” value (male rats; m14) was 0.83*. The “Lysophosphatidylcholine (C20:4) change in plasma” value (male rats; m14, first of two rows with this name (r24)) was 0.89*, the “Lysophosphatidylcholine (C20:4) change in plasma” value (male rats; m14, second of two rows with this name (r25)) was 0.79* and the “16-Methylheptadecanoic acid change in plasma” value (male rats; m28) was 0.48*. For the same molecule, the “17-Methyloctadecanoic acid change in plasma” value (male rats; m28) was 0.48*, the “Campesterol change in plasma” value (male rats; m28) was 0.55* and the “Lysophosphatidylcholine (C18:1) change in plasma” value (male rats; m28) was 0.81*. The “Myristic acid (C14:0) change in plasma” value (male rats; m28) was 0.61*, the “PC No 04 (putative) change in plasma” value (male rats; m28) was 0.54* and the “Palmitoleic acid (C16:cis[9]1) change in plasma” value (male rats; m28) was 0.32*. The “Phosphatidylcholine (C16:0,C20:4) change in plasma” value (male rats; m28) was 0.97*, the “Phosphatidylcholine (C16:1,C18:2) change in plasma” value (male rats; m28) was 0.74* and the “Phosphatidylcholine (C18:1,C18:2) change in plasma” value (male rats; m28) was 0.99. The “Phosphatidylcholine No 02 change in plasma” value (male rats; m28) was 0.62*, the “Sphingomyelin (d18:1,C16:0) change in plasma” value (male rats; m28) was 0.71* and the “Tyrosine change in plasma” value (male rats; m28) was 0.86. The “Unknown lipid (28000473) change in plasma” value (male rats; m28) was 0.37*, the “Unknown lipid (68000034) change in plasma” value (male rats; m28) was 0.45* and the “Uracil change in plasma” value (male rats; m28) was 0.79*. For the same molecule, the “beta-Sitosterol change in plasma” value (male rats; m28) was 0.73*, the “Lysophosphatidylcholine (C20:4) change in plasma” value (male rats; m28, first of two rows with this name (r24)) was 0.88* and the “Lysophosphatidylcholine (C20:4) change in plasma” value (male rats; m28, second of two rows with this name (r25)) was 0.70*. For the same molecule, the “3-Methoxytyrosine, ratio versus control” value (male rats; plasma, day 7) was 1.17*, the “Serine, ratio versus control” value (male rats; plasma, day 7) was 1.17* and the “Xylitol, ratio versus control” value (male rats; plasma, day 7) was 1.57*. The “Threonine, ratio versus control” value (male rats; plasma, day 7 (Table 7c)) was 0.96, the “3-Methoxytyrosine, ratio versus control” value (male rats; plasma, day 14) was 1.31* and the “Xylitol, ratio versus control” value (male rats; plasma, day 14) was 2.05*. The “Threonine, ratio versus control” value (male rats; plasma, day 14 (Table 7c)) was 1.22*, the “3-Methoxytyrosine, ratio versus control” value (male rats; plasma, day 28) was 1.39* and the “Xylitol, ratio versus control” value (male rats; plasma, day 28) was 1.75*. The “Threonine, ratio versus control” value (male rats; plasma, day 28 (Table 7c)) was 1.10*, the “Threonine, ratio versus control” value (female rats [1]) was 1.05* and the “3-Methoxytyrosine, ratio versus control” value (female rats [2]; day 7) was 1.26*. The “16-Methylheptadecanoic acid, ratio versus control” value (female rats [2]; day 7) was 0.73*, the “17-Methyloctadecanoic acid, ratio versus control” value (female rats [2]; day 7) was 0.80* and the “Ketoleucine, ratio versus control” value (female rats [2]; day 7) was 0.92. For the same molecule, the “Normetanephrine, ratio versus control” value (female rats [2]; day 7) was 0.84, the “Palmitoleic acid (C16:cis[9]1), ratio versus control” value (female rats [2]; day 7) was 0.91 and the “Phosphatidylcholine (C18:0,C20:3), ratio versus control” value (female rats [2]; day 7) was 0.81*. The “TAG (C18:1,C18:2,C18:3), ratio versus control” value (female rats [2]; day 7) was 2.78*, the “TAG (C42:9) (DAG-Fragment) (putative), ratio versus control” value (from here on “TAG … (putative), ratio versus control”) (female rats [2]; day 7) was 0.56* and the “Threonine, ratio versus control” value (female rats [2]; day 7) was 1.17*. The “Uracil, ratio versus control” value (female rats [2]; day 7) was 0.86*, the “Xylitol, ratio versus control” value (female rats [2]; day 7) was 1.29* and the “TAG (C18:2,C18:2), ratio versus control” value (female rats [2]; day 7 (Table 7a)) was 3.21*. For the same molecule, the “Lysophosphatidylcholine (C20:4), ratio versus control” value (female rats [2]; day 7 (first line of this name, r15)) was 0.92*, the “Lysophosphatidylcholine (C20:4), ratio versus control” value (female rats [2]; day 7 (second line of this name, r16)) was 0.88* and the “3-Methoxytyrosine, ratio versus control” value (female rats [2]; day 14) was 1.61*. The “16-Methylheptadecanoic acid, ratio versus control” value (female rats [2]; day 14) was 0.97, the “17-Methyloctadecanoic acid, ratio versus control” value (female rats [2]; day 14) was 0.92 and the “Ketoleucine, ratio versus control” value (female rats [2]; day 14) was 0.71*. For the same molecule, the “Normetanephrine, ratio versus control” value (female rats [2]; day 14) was 1.15, the “Palmitoleic acid (C16:cis[9]1), ratio versus control” value (female rats [2]; day 14) was 0.69* and the “Phosphatidylcholine (C18:0,C20:3), ratio versus control” value (female rats [2]; day 14) was 0.89*. For the same molecule, the “TAG (C18:1,C18:2,C18:3), ratio versus control” value (female rats [2]; day 14) was 2.96*, the “TAG … (putative), ratio versus control” value (female rats [2]; day 14) was 0.65* and the “Uracil, ratio versus control” value (female rats [2]; day 14) was 0.86*. For the same molecule, the “Xylitol, ratio versus control” value (female rats [2]; day 14) was 1.63*, the “TAG (C18:2,C18:2), ratio versus control” value (female rats [2]; day 14 (Table 7a)) was 2.84* and the “Lysophosphatidylcholine (C20:4), ratio versus control” value (female rats [2]; day 14 (first line of this name, r15)) was 0.96*. For the same molecule, the “Lysophosphatidylcholine (C20:4), ratio versus control” value (female rats [2]; day 14 (second line of this name, r16)) was 0.84*, the “3-Methoxytyrosine, ratio versus control” value (female rats [2]; day 28) was 1.38* and the “16-Methylheptadecanoic acid, ratio versus control” value (female rats [2]; day 28) was 0.78*. The “17-Methyloctadecanoic acid, ratio versus control” value (female rats [2]; day 28) was 0.89*, the “Ketoleucine, ratio versus control” value (female rats [2]; day 28) was 0.77* and the “Normetanephrine, ratio versus control” value (female rats [2]; day 28) was 0.89. The “Palmitoleic acid (C16:cis[9]1), ratio versus control” value (female rats [2]; day 28) was 0.60*, the “Phosphatidylcholine (C18:0,C20:3), ratio versus control” value (female rats [2]; day 28) was 0.88* and the “TAG (C18:1,C18:2,C18:3), ratio versus control” value (female rats [2]; day 28) was 2.18*. The “TAG … (putative), ratio versus control” value (female rats [2]; day 28) was 0.81*, the “Threonine, ratio versus control” value (female rats [2]; day 28) was 0.98 and the “Uracil, ratio versus control” value (female rats [2]; day 28) was 0.64*. For the same molecule, the “Xylitol, ratio versus control” value (female rats [2]; day 28) was 1.71*, the “TAG (C18:2,C18:2), ratio versus control” value (female rats [2]; day 28 (Table 7a)) was 2.20* and the “Lysophosphatidylcholine (C20:4), ratio versus control” value (female rats [2]; day 28 (first line of this name, r15)) was 0.91*. For the same molecule, the “Lysophosphatidylcholine (C20:4), ratio versus control” value (female rats [2]; day 28 (second line of this name, r16)) was 0.81*.
